Our source for the IC50 and EC50 values is patent US10005756B2, “Pyrrolidinone derivatives as MetAP-2 inhibitors” (Merck Patent GmbH, priority 2014, dated 2018).

The term IC50 denotes the concentration needed to halve the response being measured. Usually EC50 stands for the concentration giving half of the maximal effect.

The test system of the assay is human umbilical vein endothelial cells (HUVEC). The assay is described as follows: HUVEC proliferation quantified by BrdU incorporation. The settings on record: HUVEC; for IC50: read-out: IC50 HUVEC. The format is cell-based. How it is done: Determination of the Proliferation Inhibition by Inhibitors of Methionine Aminopeptidase 2 in the BrdU Proliferation Test (Cellular Assay)
After detachment of the cells by means of trypsin/EDTA, the number of living cells is determined, and the cells are sown in a density of 1000 cells per cavity in a total volume of 175 μl (cavities are coated in advance either with supplemented culture medium for 1-2 hours at 37° C. or with 1.5% gelatine for 0.5-2 hours at 37° C.). After cultivation for 24 hours, the test substances are added in various concentrations (for example final concentrations 30 μM to 0.03 nM in 10-fold dilution steps) and a volume of 25 μl. The DMSO concentration is kept constant at 0.3%. […] To this end, the cells are treated with a fixative for 30 min at room temperature and subsequently incubated with a peroxidase-labelled anti-BrdU antibody (diluted 1:100 in antibody dilution buffer) for 60 min at room temperature. […] The colour development is stopped after 15 min by addition of 25 μl of a 1M sulfuric acid solution. […] The controls used are cavities containing DMSO-treated cells (100% control) or empty cavities (blank value).
HUVEC Proliferation Quantified by BrdU Incorporation
HUVEC Means Human Umbilical Vein Endothelial Cells
HUVEC proliferation is measured after a 5 day incubation period using incorporation of BrdU as a measure of cell cycle activity. Cells are incubated in the presence or absence of test substances. During the last 18 to 24 hours of the incubation period BrdU is added to the medium. BrdU is incorporated into the DNA as the cells progress through S-phase (DNA synthesis) of the cell cycle. The cells are fixed and the amount of BrdU incorporated can be quantified using a commercial ELISA for detection of BrdU.
HUVEC are routinely cultured in EGM MV medium and used between passages 3 and 8.
All substances are run in triplicate.
Reference compounds are run in every assay.
Data is analyzed using the Assay Explorer program. Briefly, the blank is subtracted from all values, the triplicates are averaged and normalized to the untreated. EC50 is determined from a 4-parameter general sigmoidal curve (Hill fit y=(s0−slnf)/(1+(x/AC50)^nHill)+slnf) in Assay Explorer, Symyx). The processed data (EC50 or % Effect if no EC50 if reached, Efficacy) is uploaded directly from Assay Explorer to the MSRDB.
For orientation: Uptake of a labelled nucleoside into DNA is a usual measure of proliferation.

As for `O=C(NCc1cc(F)cc(F)c1)[C@@]1(O)CCN(c2cnc3[nH]cc(Cl)c3c2)C1=O` [Compound A79], the half-inhibitory concentration (IC50) is 6.5 nM. Same read-out and setting: then `C[S@](=N)(=O)c1cccc(N2CC[C@](O)(C(=O)NCc3cc(F)cc(Cl)c3)C2=O)c1` [Compound A81], with 540 nM; and `C[S@@](=N)(=O)c1cccc(N2CC[C@](O)(C(=O)NCc3cc(F)cc(Cl)c3)C2=O)c1` [Compound A82], with 310 nM. The same measure, in the same setting: then `NC(=O)c1ccc2cc(N3CCC(O)(C(=O)NCc4cc(F)cc(Cl)c4)C3=O)ccc2n1` (stereo not shown) [Compound A83], with 500 nM; and `O=C(NCc1cc(F)cc(Cl)c1)[C@@]1(O)C(=O)N(c2ccccc2)C[C@@H]1O` [Compound A87], with 2300 nM; and `O=C(NCc1cc(F)cc(F)c1)[C@@]1(O)CCN(c2cnc3[nH]cc(F)c3c2)C1=O` [Compound A89], with 32 nM. On to `CO[C@@H]1[C@H](OC(=O)NC(=O)CCl)CC[C@]2(CO2)[C@H]1[C@@]1(C)O[C@@H]1CC=C(C)C` [MSC1902850A, TNP-470, reference compound], for which the EC50 (reference compounds run in every assay, expected value, read-out: expected value (EC50) of reference compound) came out at 0.8 nM.
